Five compounds from PubChem BioAssay (NCI) can be followed below.

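Dose response: 5 concentrations. Exposure: 48 h. Format: 96-well plates. Endpoint: linear interpolation; highest concentration if not reached. TGI marks complete inhibition of growth.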 Bounds are passed on as bounds.

For the assay, the system named is RXF-631 renal. Put plainly: NCI tumour cell line growth inhibition, 48 h.

The compound `CCOP(=O)(C/C(=N/NC(C)(C)C)C(=O)Nc1nc2ccc(C)cc2s1)OCC` showed a TGI of more than 100 µM.
To `O=c1[nH]nc2c3n[nH]c(=O)n3c3ccccc3n12` belongs more than 100 µM.
The result for `CN1C(=O)c2cccc3c([N+](=O)[O-])ccc(c23)C1=O` reads 17.6 µM; that for `CCCC/C=C1\CCC(CN2CCOCC2)C1=O` (stereo not given), 29.2 µM.
The result for `CC1(Br)C(=O)NC(=O)N([C@H]2C[C@H](O)[C@@H](CO)O2)C1N=[N+]=[N-]` (stereo not given in full) reads more than 100 µM.
